Experimental findings from US9574216B2, “Auto-indicible expression system, and the use thereof for producing useful metabolites using a bacterium of the family enterobacteriaceae” (priority 2012, dated 2017) are described below.

Experiment [1] deals with T1, AHAS I (Escherichia coli, UniProt P08142+P0ADF8, N17K).
T1 construct: expressed in transfected cells; host or cells: E. coli K12 B7 (VKPM B-7) ΔilvGM ΔilvIH with a chromosomal ilvBN4 operon under PilvC (or PL); crude cell extracts
The experiment in a line: Activity of AHAS I in crude cell extracts with or without addition of 10 mM L-Val. It is filed as biochemical, E. coli. The protocol: Cells were grown to the middle-logarithmic phase in M9:LB (9:1, v/v) medium supplemented with glucose (0.4%, w/v). Activity of AHAS I in crude cells extracts was measured with or without addition of 10 mM L-Val according to the assay described in Stormer F. and Umbarger H., Biochem. Biophys. Res. Commun., 1964, 17(5):587-592.

Experiment [2] has as its system β-galactosidase LacZ. Briefly: Activity of β-galactosidase LacZ by Miller's method. It is filed as cell-based, E. coli. As to conditions: strain B7; +IPTG, 1 mM; middle-logarithmic phase, M9:LB (9:1) with glucose 0.4%. The protocol:
For the measurement of β-galactosidase activity, the strains were grown to the middle-logarithmic phase in M9:LB (9:1, v/v) medium supplemented with glucose (0.4%, w/v). The medium for the strains having ilvAYC deletion and AHAS-deficient strains was additionally supplemented with Ile (25 mg/1) and Val (25 mg/1). Activity of β-galactosidase was measured according to Miller's method (Miller J. H. (1972) Experiments in molecular genetics. Cold Spring Harbor Laboratory, Cold Spring Harbor). The data presented in Table 2 indicate that expression level of the reporter lacZ gene under PilvC promoter varies within the range of more than two orders of magnitude depending on the genetic background. The maximal expression level was provided by the E. coli strains modified to overexpress L-valine resistant AHAS I (the product of the ilvBN4 genes) or/and containing inactivated the isomeroreductase IlvC encoding gene (ilvC).

The structures appear in SMILES notation.

T1 sequence (P08142 whole entry): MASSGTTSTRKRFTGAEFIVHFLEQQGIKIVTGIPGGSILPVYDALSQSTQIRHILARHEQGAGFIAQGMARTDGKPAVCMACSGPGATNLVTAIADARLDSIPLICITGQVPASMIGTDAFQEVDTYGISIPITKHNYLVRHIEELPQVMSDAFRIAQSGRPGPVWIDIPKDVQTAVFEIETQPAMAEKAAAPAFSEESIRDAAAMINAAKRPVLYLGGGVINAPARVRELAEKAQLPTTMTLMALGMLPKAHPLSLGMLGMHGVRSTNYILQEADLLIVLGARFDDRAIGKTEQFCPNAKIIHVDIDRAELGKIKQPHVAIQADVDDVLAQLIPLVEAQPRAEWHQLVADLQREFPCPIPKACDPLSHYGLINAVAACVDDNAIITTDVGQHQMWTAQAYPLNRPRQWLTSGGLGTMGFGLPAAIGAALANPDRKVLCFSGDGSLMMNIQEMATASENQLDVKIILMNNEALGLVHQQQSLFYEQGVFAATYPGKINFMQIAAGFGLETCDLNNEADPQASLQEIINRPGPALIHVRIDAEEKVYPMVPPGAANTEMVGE
T1 sequence (P0ADF8 whole entry N17K): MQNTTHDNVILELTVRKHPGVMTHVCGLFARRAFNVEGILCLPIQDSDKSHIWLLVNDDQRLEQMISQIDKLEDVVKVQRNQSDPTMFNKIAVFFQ

Take `CC(C)[C@H](N)C(=O)O` [L-Val, L-valine]: the “AHAS I activity with L-Val, 10 mM (percent of value, measured without L-Val addition)” value was found to be 86% in experiment [1] (crude extract of strain B7 ΔilvGM ΔilvIH PL-ilvBN4 (control)), 88% in experiment [1] (crude extract of strain B7 ΔilvGM ΔilvIH cat-ilvY-PilvC-ilvBN4 cl.1) and 88% in experiment [1] (crude extract of strain B7 ΔilvGM ΔilvIH cat-ilvY-PilvC-ilvBN4 cl.4). Besides, the “AHAS I activity with L-Val, 10 mM” value in experiment [1] (crude extract of strain B7 ΔilvGM ΔilvIH PL-ilvBN4 (control), mean of triplicate) stood at 51 nmol/min/mg; in experiment [1] (crude extract of strain B7 ΔilvGM ΔilvIH cat-ilvY-PilvC-ilvBN4 cl.1, mean of triplicate), 80 nmol/min/mg; in experiment [1] (crude extract of strain B7 ΔilvGM ΔilvIH cat-ilvY-PilvC-ilvBN4 cl.4, mean of triplicate), 106 nmol/min/mg.
As for `CC(C)S[C@@H]1O[C@H](CO)[C@H](O)[C@H](O)[C@H]1O` [IPTG], the “Specific activity of β-galactosidase” value in experiment [2] was found to be 1200 Miller's units.
